Test results taken from patent publication US9260439B2, “Dihydropyrrolopyrimidine derivatives” (PFIZER INC., priority 2014, dated 2016).

Biological target: truncated PI3Kα (p110α/iSH2 p85α) (Homo sapiens (Human), UniProt P42336)
Assay: PI3KA_Act fluorescence polarization kinase assay (Ki)
Type: biochemical
Details: 1 mM ATP
Procedure, shortened: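 p110α/iSH2 p85α (0.5 nM) was reacted with 30 μM sonicated PIP2 in 50 mM HEPES pH 7.4, 150 mM NaCl, 5 mM MgCl2, 1 mM DTT and 0.05% CHAPS for 30 min at room temperature, then stopped with EDTA. PIP3 was detected by fluorescence polarization (GST-Grp1 PH domain/TAMRA-PIP3), and Ki came from a Morrison tight-binding fit.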

Sequence of truncated PI3Kα (p110α/iSH2 p85α) (P42336 whole entry, the tested form may be a part): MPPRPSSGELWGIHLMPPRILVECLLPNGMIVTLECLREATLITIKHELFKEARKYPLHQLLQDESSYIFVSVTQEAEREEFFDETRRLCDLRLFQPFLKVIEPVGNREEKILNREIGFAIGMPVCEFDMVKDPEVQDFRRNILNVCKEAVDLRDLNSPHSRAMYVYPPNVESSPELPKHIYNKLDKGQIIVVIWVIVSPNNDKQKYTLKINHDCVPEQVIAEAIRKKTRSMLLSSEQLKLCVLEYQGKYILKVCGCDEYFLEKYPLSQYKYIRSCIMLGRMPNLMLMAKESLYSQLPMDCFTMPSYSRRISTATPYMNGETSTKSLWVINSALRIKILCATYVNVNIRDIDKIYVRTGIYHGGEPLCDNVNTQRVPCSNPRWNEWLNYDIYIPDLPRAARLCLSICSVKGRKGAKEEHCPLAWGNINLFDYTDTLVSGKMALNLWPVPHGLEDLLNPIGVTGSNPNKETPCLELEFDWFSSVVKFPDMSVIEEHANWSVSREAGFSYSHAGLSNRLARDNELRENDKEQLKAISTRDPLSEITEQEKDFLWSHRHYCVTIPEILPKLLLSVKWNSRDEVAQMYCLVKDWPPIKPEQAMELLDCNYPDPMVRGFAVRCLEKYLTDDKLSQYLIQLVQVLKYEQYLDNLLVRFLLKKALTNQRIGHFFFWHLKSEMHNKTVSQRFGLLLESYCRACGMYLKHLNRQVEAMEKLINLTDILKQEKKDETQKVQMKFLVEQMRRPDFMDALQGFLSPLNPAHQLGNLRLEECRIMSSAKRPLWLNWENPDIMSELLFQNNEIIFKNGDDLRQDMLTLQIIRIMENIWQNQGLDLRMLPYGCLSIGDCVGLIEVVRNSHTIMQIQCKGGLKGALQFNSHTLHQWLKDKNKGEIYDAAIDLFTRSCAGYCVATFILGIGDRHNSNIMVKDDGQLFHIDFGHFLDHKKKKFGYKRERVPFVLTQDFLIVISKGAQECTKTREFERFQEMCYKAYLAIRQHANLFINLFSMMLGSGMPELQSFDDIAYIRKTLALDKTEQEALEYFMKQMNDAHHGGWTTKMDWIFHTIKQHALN

In order of falling “PI3KA_Act Ki” value:
1. CN[C@H]1C[C@@H](N2CCc3c(-c4cnc(N)nc4)nc(N4CCOC[C@@H]4C)nc32)C1.Cl [Example 444, 5-{7-[cis-3-(methylamino)cyclobutyl]-2-[(3S)-3-methylmorpholin-4-yl]-6,7-dihydro-5H-pyrrolo[2,3-d]pyrimidin-4-yl}pyrimidin-2-amine hydrochloride]  2.125 nM
2. CN[C@H]1C[C@H](N2CCc3c(-c4cnc(N)nc4)nc(N4CCOC[C@@H]4C)nc32)C1.Cl [Example 445, 5-{7-[trans-3-(methylamino)cyclobutyl]-2-[(3S)-3-methylmorpholin-4-yl]-6,7-dihydro-5H-pyrrolo[2,3-d]pyrimidin-4-yl}pyrimidin-2-amine hydrochloride]  0.993 nM
3. CC(C)C(=O)N1CC(N2CCc3c(-c4cnc(N)nc4)nc(N4CCOC[C@@H]4C)nc32)C1 [Example 453, 1-(3-{4-(2-aminopyrimidin-5-yl)-2-[(3S)-3-methylmorpholin-4-yl]-5,6-dihydro-7H-pyrrolo[2,3-d]pyrimidin-7-yl}azetidin-1-yl)-2-methylpropan-1-one]  0.973 nM
4. CCC(=O)NCC(=O)N1CC(N2CCc3c(-c4cnc(N)nc4)nc(N4CCOC[C@@H]4C)nc32)C1 [Example 457, N-[2-(3-{4-(2-aminopyrimidin-5-yl)-2-[(3S)-3-methylmorpholin-4-yl]-5,6-dihydro-7H-pyrrolo[2,3-d]pyrimidin-7-yl}azetidin-1-yl)-2-oxoethyl]propanamide]  0.691 nM
5. C[C@H]1COCCN1c1nc(-c2cnc(N)nc2)c2c(n1)N([C@H]1C[C@@H](NC(=O)OC(C)(C)C)C1)CC2 [Example 447, tert-butyl (cis-3-{4-(2-aminopyrimidin-5-yl)-2-[(3S)-3-methylmorpholin-4-yl]-5,6-dihydro-7H-pyrrolo[2,3-d]pyrimidin-7-yl}cyclobutyl)carbamate]  0.644 nM
6. C[C@H]1COCCN1c1nc(-c2cnc(N)nc2)c2c(n1)N([C@@]1(C)CNC[C@@H]1C)CC2.Cl [Example 468, 5-{7-[(3R,4S)-3,4-dimethylpyrrolidin-3-yl]-2-[(3S)-3-methylmorpholin-4-yl]-6,7-dihydro-5H-pyrrolo[2,3-d]pyrimidin-4-yl}pyrimidin-2-amine hydrochloride]  0.634 nM
7. CC(=O)N1CC(N2CCc3c(-c4cnc(N)nc4)nc(N4CCOC[C@@H]4C)nc32)C1 [Example 451, 1-(3-{4-(2-aminopyrimidin-5-yl)-2-[(3S)-3-methylmorpholin-4-yl]-5,6-dihydro-7H-pyrrolo[2,3-d]pyrimidin-7-yl}azetidin-1-yl)ethanone]  0.595 nM
8. C[C@H]1COCCN1c1nc(-c2cnc(N)nc2)c2c(n1)N([C@H]1C[C@H](NC(=O)OC(C)(C)C)C1)CC2 [Example 446, tert-butyl (trans-3-{4-(2-aminopyrimidin-5-yl)-2-[(3S)-3-methylmorpholin-4-yl]-5,6-dihydro-7H-pyrrolo[2,3-d]pyrimidin-7-yl}cyclobutyl)carbamate]  0.433 nM
9. C[C@H]1COCCN1c1nc(-c2cnc(N)nc2)c2c(n1)N(C1CN(C(=O)C(C)(C)O)C1)CC2 [Example 454, 1-(3-{4-(2-aminopyrimidin-5-yl)-2-[(3S)-3-methylmorpholin-4-yl]-5,6-dihydro-7H-pyrrolo[2,3-d]pyrimidin-7-yl}azetidin-1-yl)-2-hydroxy-2-methylpropan-1-one]  0.387 nM
10. C[C@H]1COCCN1c1nc(-c2cnc(N)nc2)c2c(n1)N([C@]1(C)CCNC1)CC2.Cl [Example 466, 5-{2-[(3S)-3-methylmorpholin-4-yl]-7-[(3R)-3-methylpyrrolidin-3-yl]-6,7-dihydro-5H-pyrrolo[2,3-d]pyrimidin-4-yl}pyrimidin-2-amine hydrochloride]  0.303 nM
11. C[C@H]1COCCN1c1nc(-c2cnc(N)nc2)c2c(n1)N(C1CN(S(=O)(=O)N3CCC3)C1)CC2 [Example 464, 5-{7-[1-(azetidin-1-ylsulfonyl)azetidin-3-yl]-2-[(3S)-3-methylmorpholin-4-yl]-6,7-dihydro-5H-pyrrolo[2,3-d]pyrimidin-4-yl}pyrimidin-2-amine]  0.193 nM
12. C[C@H]1COCCN1c1nc(-c2cnc(N)nc2)c2c(n1)N(C1(C)CN(C(=O)C(C)(C)O)C1)CC2 [Example 455, 1-(3-{4-(2-aminopyrimidin-5-yl)-2-[(3S)-3-methylmorpholin-4-yl]-5,6-dihydro-7H-pyrrolo[2,3-d]pyrimidin-7-yl}-3-methylazetidin-1-yl)-2-hydroxy-2-methylpropan-1-one]  0.187 nM
13. C[C@H]1COCCN1c1nc(-c2cnc(N)nc2)c2c(n1)N(C1CN(S(=O)(=O)C3CCC3)C1)CC2 [Example 463, 5-{7-[1-(cyclobutylsulfonyl)azetidin-3-yl]-2-[(3S)-3-methylmorpholin-4-yl]-6,7-dihydro-5H-pyrrolo[2,3-d]pyrimidin-4-yl}pyrimidin-2-amine]  0.169 nM
14. C[C@H]1COCCN1c1nc(-c2cnc(N)nc2)c2c(n1)N(C1(C)CNC1)CC2.Cl [Example 450, 5-{7-(3-methylazetidin-3-yl)-2-[(3S)-3-methylmorpholin-4-yl]-6,7-dihydro-5H-pyrrolo[2,3-d]pyrimidin-4-yl}pyrimidin-2-amine hydrochloride]  0.167 nM
15. C[C@H]1COCCN1c1nc(-c2cnc(N)nc2)c2c(n1)N([C@@]1(C)CCNC1)CC2.Cl [Example 465, 5-{2-[(3S)-3-methylmorpholin-4-yl]-7-[(3S)-3-methylpyrrolidin-3-yl]-6,7-dihydro-5H-pyrrolo[2,3-d]pyrimidin-4-yl}pyrimidin-2-amine hydrochloride]  0.160 nM
16. C[C@H]1COCCN1c1nc(-c2cnc(N)nc2)c2c(n1)N(C1CN(C(=O)C3(C)CC3)C1)CC2 [Example 458, (3-{4-(2-aminopyrimidin-5-yl)-2-[(3S)-3-methylmorpholin-4-yl]-5,6-dihydro-7H-pyrrolo[2,3-d]pyrimidin-7-yl}azetidin-1-yl)(1-methylcyclopropyl)methanone]  0.159 nM
17. C[C@@H]1CNC[C@@]1(C)N1CCc2c(-c3cnc(N)nc3)nc(N3CCOC[C@@H]3C)nc21.Cl [Example 467, 5-{7-[(3S,4R)-3,4-dimethylpyrrolidin-3-yl]-2-[(3S)-3-methylmorpholin-4-yl]-6,7-dihydro-5H-pyrrolo[2,3-d]pyrimidin-4-yl}pyrimidin-2-amine hydrochloride]  0.106 nM
18. CC(=O)N1CC(C)(N2CCc3c(-c4cnc(N)nc4)nc(N4CCOC[C@@H]4C)nc32)C1 [Example 452, 1-(3-{4-(2-aminopyrimidin-5-yl)-2-[(3S)-3-methylmorpholin-4-yl]-5,6-dihydro-7H-pyrrolo[2,3-d]pyrimidin-7-yl}-3-methylazetidin-1-yl)ethanone]  0.090 nM
19. CC(=O)N1CC[C@@](C)(N2CCc3c(-c4cnc(N)nc4)nc(N4CCOC[C@@H]4C)nc32)C1 [Example 470, 1-[(3R)-3-{4-(2-aminopyrimidin-5-yl)-2-[(3S)-3-methylmorpholin-4-yl]-5,6-dihydro-7H-pyrrolo[2,3-d]pyrimidin-7-yl}-3-methylpyrrolidin-1-yl]ethanone]  0.070 nM
20. C[C@H]1COCCN1c1nc(-c2cnc(N)nc2)c2c(n1)N(C1(C)CN(C(=O)C(C)(C)N)C1)CC2.Cl [Example 456, 2-amino-1-(3-{4-(2-aminopyrimidin-5-yl)-2-[(3S)-3-methylmorpholin-4-yl]-5,6-dihydro-7H-pyrrolo[2,3-d]pyrimidin-7-yl}-3-methylazetidin-1-yl)-2-methylpropan-1-one hydrochloride]  0.063 nM
21. C[C@H]1COCCN1c1nc(-c2cnc(N)nc2)c2c(n1)N(C1(C)CN(C(=O)C3(C)CC3)C1)CC2 [Example 459, (3-{4-(2-aminopyrimidin-5-yl)-2-[(3S)-3-methylmorpholin-4-yl]-5,6-dihydro-7H-pyrrolo[2,3-d]pyrimidin-7-yl}-3-methylazetidin-1-yl)(1-methylcyclopropyl)methanone]  0.057 nM
22. CNC(=O)N1CC(C)(N2CCc3c(-c4cnc(N)nc4)nc(N4CCOC[C@@H]4C)nc32)C1 [Example 462, 3-{4-(2-aminopyrimidin-5-yl)-2-[(3S)-3-methylmorpholin-4-yl]-5,6-dihydro-7H-pyrrolo[2,3-d]pyrimidin-7-yl}-N,3-dimethylazetidine-1-carboxamide]  0.057 nM
23. CC(=O)N1CC[C@](C)(N2CCc3c(-c4cnc(N)nc4)nc(N4CCOC[C@@H]4C)nc32)C1 [Example 469, 1-[(3S)-3-{4-(2-aminopyrimidin-5-yl)-2-[(3S)-3-methylmorpholin-4-yl]-5,6-dihydro-7H-pyrrolo[2,3-d]pyrimidin-7-yl}-3-methylpyrrolidin-1-yl]ethanone]  0.052 nM
24. COC(=O)N1CC(C)(N2CCc3c(-c4cnc(N)nc4)nc(N4CCOC[C@@H]4C)nc32)C1 [Example 460, methyl 3-{4-(2-aminopyrimidin-5-yl)-2-[(3S)-3-methylmorpholin-4-yl]-5,6-dihydro-7H-pyrrolo[2,3-d]pyrimidin-7-yl}-3-methylazetidine-1-carboxylate]  0.047 nM
25. C[C@H]1COCCN1c1nc(-c2cnc(N)nc2)c2c(n1)N(C1(C)CN(C(=O)OC(C)(C)C)C1)CC2 [Example 461, tert-butyl 3-{4-(2-aminopyrimidin-5-yl)-2-[(3S)-3-methylmorpholin-4-yl]-5,6-dihydro-7H-pyrrolo[2,3-d]pyrimidin-7-yl}-3-methylazetidine-1-carboxylate]  0.040 nM
26. C[C@@H](O)C(=O)N1CC[C@](C)(N2CCc3c(-c4cnc(N)nc4)nc(N4CCOC[C@@H]4C)nc32)C1 [Example 471, (2R)-1-[(3S)-3-{4-(2-aminopyrimidin-5-yl)-2-[(3S)-3-methylmorpholin-4-yl]-5,6-dihydro-7H-pyrrolo[2,3-d]pyrimidin-7-yl}-3-methylpyrrolidin-1-yl]-2-hydroxypropan-1-one]  0.037 nM
